# Source: patent US5834435A, “Inhibition of TNF-α pleiotropic and cytotoxic effects” (priority 1996, dated 1998)
# How the values were obtained:
# [1] = test system: E6/1.2 anti-GMDP monoclonal antibody; assay: Antibody capture assay with antigen competition variation; format: binding, mouse; conditions: 1 μg/well and 0.1 μg/well GMDP-Lys-PAA; FIGS. 1A,B and 2
# Excerpt: Antibody capture assay (Antibodies: A laboratory Manual (E. Harlow and D. Lane, eds.), Cold Spring Harbor Laboratory, 1988) with antigen competition variation has been used to detect GMDP in human […]. Highly specific mouse E6/1.2 anti-GMDP monoclonal antibody (Ka=2×10^9 M^-1) and GMDP conjugated to polyacrylamide backbone through amino group of lysine (GMDP-Lys-PAA) were obtained from Dr. Nesmeyanov, the Shemyakin and Ovchinnikov Institute of Bioorganic Chemistry, Russian Academy of Sciences, Moscow, Russia.
# Briefly, GMDP-Lys-PAA or serial dilutions of human female milk in phosphate buffered saline (PBS) were adsorbed onto wells of microtiter plates for several hours. After washing with PBS, remaining binding sites were blocked by 1 h incubations with 200 μl PBS+3% bovine serum albumin (BSA). After washing with PBS 100 μl of E6/1.2 antibody, diluted 1:1,000 or 1:2,000 with PBS+1% BSA, were added. The incubation was carried out for 1 h at room temperature. […] Optical density at 492 nm was measured.
# Two different amounts of GMDP-Lys-PAA in PBS were adsorbed onto wells of microtiter plates (1 μg/well and 0.1 μg/well). […] Inhibition index (I,%) was calculated from: I=(1-Ao/A1)×100, where Ao and A1 are optical densities of samples without or with inhibitor, respectively.
# [2] = test system: isolated cardiac myocytes; assay: Effects of TNF-α on contractivity of adult cardiac myocytes (cell shortening, video edge detection); format: cell-based, human
# Procedure: Myocardial samples were obtained from organ donors, whose hearts were initially considered for cardiac transplantation but were subsequently deemed unsuitable for transplantation because of blood type or size incompatibility. Freshly isolated myocytes were treated for 60 minutes at 37° C. with single concentration of GMDP (5 μg/ml). Control cells were treated with single concentration of recombinant human TNF-α (Genzyme) that is known to produce negative inotropic effects in isolated cardiac myocytes (200 μ/ml). Cell motion was characterized with video edge detection as previously described in detail (17). Results were expressed as percentage change in cell length from resting values.
# [3] = test system: patients with terminate stage of cancer
# Excerpt: 27 patients with terminate stage of cancer participated in this study. The study group consisted of 19 females and 8 males between 14 and 59 years of age. 3 of them have had malignant brain tumors glioblastoma multiforme, 9 patients had breast carcinoma with massive metastasis to the liver or brain, one patient had intermediate stage lymphoma, one of them had stomach cancer with liver metastasis, three patients had hepatomas with lung metastasis, and two of them pancreatic cancer with liver metastasis.
# 19 patients were given GMDP orally at dosage of 50 mg daily as a water solution for fourteen days. 8 patients received a placebo.
# Results were expressed as percentage change in LDH activity from pretreatment values.
# [4] = test system: patients with terminate stage of cancer; remark: listed apart in the source
# Excerpt: Results were expressed as percentage change in both triglycerides and cholesterol level from pretreatment values.
# [5] = test system: isolated cardiac myocytes; assay: Intracellular fluorescence brightness in isolated cardiac myocytes; format: cell-based; conditions: 200 μ/ml TNF-α; n=45 cells/group; FIG. 7 insert
# Excerpt: As shown, the peak level of intracellular fluorescence brightness was reduced strikingly for the cells treated with 200 μ/ml TNF-α.
Molecule,inhibition of E6/1.2 antibody interaction with the adsorbed GMDP-Lys-PAA [1],negative inotropic effects of TNF-α in isolated cardiac myocytes ([2]; FIGS. 6 and 7 taken together),"effects of TNF alfa on cell shortening after pretreatment ([2]; GMDP 5 μg/ml, 60 minutes at 37° C., 200 μ/ml TNF alfa, FIG. 6)",overall clinical condition during the follow up period ([3]; all patients treated with GMDP),side effects ([3]; orally 50 mg daily as water solution for fourteen days),"decreasing of LDH activity (percentage change from pretreatment values) ([3]; orally 50 mg daily, fourteen days, lowest level at the fourteenth day, FIG. 8)",nausea and vomiting subsided ([3]; patients who had these symptoms of tumor toxicity before treatment),"reduction of elevated cholesterol level (percentage change from pretreatment values) ([4]; patient treated with GMDP, FIG. 10)","decreasing for triglycerides concentration (percentage change from pretreatment values) ([4]; treated patients with elevated triglycerides, FIG. 9)","cell shortening ([2]; cells treated with TNF-α vs control, n=40 cells/group, FIG. 6)",decrease in the percent change in peak intensity of fluorescence brightness [5]
"CC(=O)NC1C(OC2C(CO)OC(O)C(NC(C)=O)C2OC(C)C(=O)NC(C)C(=O)NC(CCC(=O)O)C(N)=O)OC(CO)C(O)C1O [GMDP, N-acetyl-D-glucosaminyl-(β1-4)-N-acetylmuramyl-L-alanyl-D-isoglutamine]",inhibition,inhibits,completely attenuated,improved,None,68%,7 patients,51%,82%,–,–
TNF-α [reference compound],–,–,–,–,–,–,–,–,–,concentration-dependent decrease,~ 38%
